Publication PMC11237035, “Glutathione determines chronic myeloid leukemia vulnerability to an inhibitor of CMPK and TMPK” (Communications Biology, 2024)
“And” between values parts separate entries of the source, which are not always exact repeats. Equal entries are not always repeated. Where two headings read alike, the source gives them in different places.

Key:
Format in all cases: cell-based, mouse
T315I-Bcr-Abl-32D cells [1] = test: dTTP/dCTP pools by RCA-qPCR in T315I-Bcr-Abl-32D cells; details: T315I-Bcr-Abl-32D cells, combinatory treatment of UK-5099 with JMF4073
Description: The methanol extracts were centrifuged
For chloroform extraction, same volume of
attomol of the annealed template-primer.
The RCA products were determined by
The thiophenol compound 3 was
(98.5%) after silica gel chromatography.

untransformed 32D cells = test: CCK-8 cell viability assay, untransformed 32D cells; details: for viability (vehicle, 0 = 100): 32D cells, 72 h, no BSO; for viability (vehicle, 0 = 100) / viability (0 = 100): single replicates; for viability (0 = 100): Untransformed
Description: After 72 h, viability assays were performed.
3 independent experiments. Asterisks denote ***p<0.001 from non-paired two-tailed

WT-Bcr-Abl-32D cells = test: CCK-8 cell viability assay, WT-Bcr-Abl-32D cells; details: for viability (0 = 100): single replicates
T315I-Bcr-Abl-32D cells [2] = test: CCK-8 cell viability assay, T315I-Bcr-Abl-32D cells; details: for cell viability (% of NT, 0 JMF4073), Figure 5e / cell viability (% of 0 JMF4073), Figure 5b: T315I; for cell viability (% of NT, 0 JMF4073), Figure 5e: NT (no BSO)

CC(C)(C)OC(=O)N1CCN(C(=O)Cn2sc3ccc(F)cc3c2=O)CC1 [JMF4073, Tert-butyl 4-(2-(5-fluoro-3-oxobenzo[d]isothiazol-2(3H)-yl)acetyl) piperazine-1-carboxylate]
dCTP pool (T315I-Bcr-Abl-32D cells [1]): exhaustion
dTTP pool (T315I-Bcr-Abl-32D cells [1]): exhaustion
viability (vehicle, 0 = 100) (untransformed 32D cells; JMF4073 0.5 mM (so in the source)): 108 and 88
viability (vehicle, 0 = 100) (untransformed 32D cells; JMF4073 1.25 mM (so in the source)): 86 and 80
viability (vehicle, 0 = 100) (untransformed 32D cells; JMF4073 2.5 mM (so in the source)): 70 and 71.46
growth of cells, BSO in combination with JMF4073 (untransformed 32D cells; 32D myeloid progenitor cells): severely suppressed the growth
GI50 (untransformed 32D cells; Mus musculus, untransformed 32D cells, viability): 4200 nM
viability (0 = 100) (untransformed 32D cells; JMF4073 1 mM (so in the source)): 80.74 and 95.63 and 110
viability (0 = 100) (untransformed 32D cells; JMF4073 2 mM (so in the source)): 67.24 and 95.4 and 71
viability (0 = 100) (untransformed 32D cells; JMF4073 5 mM (so in the source)): 26.41 and 55.58 and 32
GI50 (WT-Bcr-Abl-32D cells; Mus musculus, WT-Bcr-Abl-32D cells, viability): 670 nM
viability (0 = 100) (WT-Bcr-Abl-32D cells; WT-Bcr-Abl, JMF4073 1 mM (so in the source)): 5 and 32.8138 and 24
viability (0 = 100) (WT-Bcr-Abl-32D cells; WT-Bcr-Abl, JMF4073 2 mM (so in the source)): 1 and 9.014 and 19
viability (0 = 100) (WT-Bcr-Abl-32D cells; WT-Bcr-Abl, JMF4073 5 mM (so in the source)): -1.08 and 0.13 and 0
cell viability (% of NT vehicle), Figure 5h (WT-Bcr-Abl-32D cells; WT-Bcr-Abl, NT (no NAC), JMF4073, single replicates): 28.4633 and 15.0339 and 2.584
JMF4073 sensitivity after NAC treatment (WT-Bcr-Abl-32D cells; WT-Bcr-Abl-32D cells, NAC 1 mM + JMF4073 0.5 μM, 72 h): insensitive to JMF4073
viability at 1000 µM (T315I-Bcr-Abl-32D cells [2]; Mus musculus, T315I-Bcr-Abl, JMF4073 1 mM (so in the source), single replicates, read-out: viability (0 = 100)): 69%
viability at 500 µM (T315I-Bcr-Abl-32D cells [2]; Mus musculus, T315I-Bcr-Abl, NT (no UK-5099), JMF4073 0.5 mM as printed, replicates, read-out: Figure 6c, viability relative to NT (=100)): 80.7%
viability at 1250 µM (T315I-Bcr-Abl-32D cells [2]; Mus musculus, T315I-Bcr-Abl, NT (no UK-5099), JMF4073 1.25 mM as printed, replicates, read-out: Figure 6c, viability relative to NT (=100)): 43%
viability at 500 µM (T315I-Bcr-Abl-32D cells [2]; Mus musculus, read-out: cell viability (% of 0 JMF4073), Figure 5b, T315I, shLacZ, JMF4073 0.5 mM (so in the source), single replicates): 78.6%
viability at 2500 µM (T315I-Bcr-Abl-32D cells [2]; Mus musculus, read-out: cell viability (% of 0 JMF4073), Figure 5b, T315I, shLacZ, JMF4073 2.5 mM (so in the source), single replicates): 15.5%
viability at 500 µM (T315I-Bcr-Abl-32D cells [2]; Mus musculus, read-out: cell viability (% of 0 JMF4073), Figure 5b, T315I, shSHMT2, JMF4073 0.5 mM (so in the source), single replicates): 71.4%
viability at 1250 µM (T315I-Bcr-Abl-32D cells [2]; Mus musculus, read-out: cell viability (% of 0 JMF4073), Figure 5b, T315I, shSHMT2, JMF4073 1.25 mM (so in the source), single replicates): 52.1%
viability at 2500 µM (T315I-Bcr-Abl-32D cells [2]; Mus musculus, read-out: cell viability (% of 0 JMF4073), Figure 5b, T315I, shSHMT2, JMF4073 2.5 mM (so in the source), single replicates): 14.5%
viability at 500 µM (T315I-Bcr-Abl-32D cells [2]; Mus musculus, read-out: cell viability (% of NT, 0 JMF4073), Figure 5e, T315I, NT (no BSO), JMF4073 0.5 mM (so in the source), single replicates): 88%
viability at 1250 µM (T315I-Bcr-Abl-32D cells [2]; Mus musculus, read-out: cell viability (% of NT, 0 JMF4073), Figure 5e, T315I, NT (no BSO), JMF4073 1.25 mM (so in the source), single replicates): 64%
GI50 (T315I-Bcr-Abl-32D cells [2]; Mus musculus, T315I-Bcr-Abl-32D cells, viability): 1500 nM
cell viability (% of NT, 0 JMF4073), Figure 5e (T315I-Bcr-Abl-32D cells [2]; JMF4073 0.5 mM (so in the source), single replicates): 86.2452 and 88.0302
cell viability (% of NT, 0 JMF4073), Figure 5e (T315I-Bcr-Abl-32D cells [2]; JMF4073 1.25 mM (so in the source), single replicates): 67.023 and 70.4858
cell viability (% of NT, 0 JMF4073), Figure 5e (T315I-Bcr-Abl-32D cells [2]; JMF4073 2.5 mM (so in the source), single replicates): 17 and 12.279 and 45.0063
cell viability (% of 0 JMF4073), Figure 5b (T315I-Bcr-Abl-32D cells [2]; shLacZ, JMF4073 0.5 mM (so in the source), single replicates): 80.777
cell viability (% of 0 JMF4073), Figure 5b (T315I-Bcr-Abl-32D cells [2]; shLacZ, JMF4073 1.25 mM (so in the source), single replicates): 68.6184 and 53.2629
cell viability (% of 0 JMF4073), Figure 5b (T315I-Bcr-Abl-32D cells [2]; shLacZ, JMF4073 2.5 mM (so in the source), single replicates): 11.7008
cell viability (% of 0 JMF4073), Figure 5b (T315I-Bcr-Abl-32D cells [2]; shSHMT2, JMF4073 0.5 mM (so in the source), single replicates): 67.1231
cell viability (% of 0 JMF4073), Figure 5b (T315I-Bcr-Abl-32D cells [2]; shSHMT2, JMF4073 1.25 mM (so in the source), single replicates): 37.9395
cell viability (% of 0 JMF4073), Figure 5b (T315I-Bcr-Abl-32D cells [2]; shSHMT2, JMF4073 2.5 mM (so in the source), single replicates): 11.3951
viability (0 = 100) (T315I-Bcr-Abl-32D cells [2]; T315I-Bcr-Abl, JMF4073 1 mM (so in the source), single replicates): 70 and 66.4746
